From the supplement of paper PMC10307832

Tests used:
Experiment in all cases: relative viability (nuclei count vs DMSO), 5 days (fraction); higher = more cells survive
Trametinib + Palbociclib = compound: CC(=O)Nc1cccc(-n2c(=O)n(C3CC3)c(=O)c3c(Nc4ccc(I)cc4F)n(C)c(=O)c(C)c32)c1 [Trametinib] + CC(=O)c1c(C)c2cnc(Nc3ccc(N4CCNCC4)cn3)nc2n(C2CCCC2)c1=O [Palbociclib] (partner 0.5 µM)
In short: (§1)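 Lung cancer cell lines in 1536-well plates got either a single drug or a fixed anchor-drug dose together with five library-drug doses (not always all listed) in √10 steps, by pin tool, on the day after seeding. Nuclei were counted after 5 days, and relative viability is the treated-to-vehicle ratio of nuclei counts. Values are medians of duplicate plates.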

Trametinib + Dasatinib = compound: CC(=O)Nc1cccc(-n2c(=O)n(C3CC3)c(=O)c3c(Nc4ccc(I)cc4F)n(C)c(=O)c(C)c32)c1 [Trametinib] + Cc1nc(Nc2ncc(C(=O)Nc3c(C)cccc3Cl)s2)cc(N2CCN(CCO)CC2)n1 [Dasatinib] (partner 0.075 µM)
In short: as §1

Trametinib + Decitabine = compound: CC(=O)Nc1cccc(-n2c(=O)n(C3CC3)c(=O)c3c(Nc4ccc(I)cc4F)n(C)c(=O)c(C)c32)c1 [Trametinib] + Nc1ncn([C@H]2C[C@H](O)[C@@H](CO)O2)c(=O)n1 [Decitabine] (partner 2 µM)
In short: as §1

Trametinib + Vorinostat = compound: CC(=O)Nc1cccc(-n2c(=O)n(C3CC3)c(=O)c3c(Nc4ccc(I)cc4F)n(C)c(=O)c(C)c32)c1 [Trametinib] + O=C(CCCCCCC(=O)Nc1ccccc1)NO [Vorinostat] (partner 1 µM)
In short: as §1

| Cell Line | relative viability (Trametinib + Palbociclib; first compound 0.0025 µM) | relative viability (Trametinib + Palbociclib; first compound 0.007906 µM) | relative viability (Trametinib + Palbociclib; first compound 0.025 µM) | relative viability (Trametinib + Palbociclib; first compound 0.07906 µM) | relative viability (Trametinib + Palbociclib; first compound 0.25 µM) | relative viability (Trametinib + Dasatinib; first compound 0.0025 µM) | relative viability (Trametinib + Dasatinib; first compound 0.007906 µM) | relative viability (Trametinib + Dasatinib; first compound 0.025 µM) | relative viability (Trametinib + Dasatinib; first compound 0.07906 µM) | relative viability (Trametinib + Dasatinib; first compound 0.25 µM) | relative viability (Trametinib + Decitabine; first compound 0.0025 µM) | relative viability (Trametinib + Decitabine; first compound 0.007906 µM) | relative viability (Trametinib + Decitabine; first compound 0.025 µM) | relative viability (Trametinib + Decitabine; first compound 0.07906 µM) | relative viability (Trametinib + Decitabine; first compound 0.25 µM) | relative viability (Trametinib + Vorinostat; first compound 0.0025 µM) | relative viability (Trametinib + Vorinostat; first compound 0.007906 µM) | relative viability (Trametinib + Vorinostat; first compound 0.025 µM) | relative viability (Trametinib + Vorinostat; first compound 0.07906 µM) | relative viability (Trametinib + Vorinostat; first compound 0.25 µM) |
| --- | --- | --- | --- | --- | --- | --- | --- | --- | --- | --- | --- | --- | --- | --- | --- | --- | --- | --- | --- | --- |
| LOU-NH91 | 0.604 | 0.524 | 0.561 | 0.552 | 0.453 | 0.528 | 0.498 | 0.468 | 0.426 | 0.296 | 0.804 | 0.776 | 0.734 | 0.71 | 0.544 | 0.893 | 0.802 | 0.766 | 0.809 | 0.411 |
| LU99A | 0.401 | 0.436 | 0.335 | 0.355 | 0.243 | 0.529 | 0.535 | 0.376 | 0.363 | 0.317 | 0.796 | 0.813 | 0.59 | 0.665 | 0.511 | 0.546 | 0.503 | 0.291 | 0.397 | 0.254 |
| LXF-289 | 0.526 | 0.508 | 0.423 | 0.429 | 0.379 | 0.192 | 0.305 | 0.299 | 0.28 | 0.0945 | 0.399 | 0.408 | 0.385 | 0.319 | 0.391 | 0.711 | 0.587 | 0.538 | 0.529 | 0.55 |
| NCI-H23 | 0.472 | 0.414 | 0.268 | 0.209 | 0.175 | 0.544 | 0.74 | 0.293 | 0.231 | 0.172 | 0.291 | 0.297 | 0.281 | 0.269 | 0.258 | 0.501 | 0.537 | 0.277 | 0.323 | 0.126 |
| NCI-H322M | 0.448 | 0.428 | 0.404 | 0.43 | 0.431 | 0.239 | 0.239 | 0.247 | 0.266 | 0.284 | 0.691 | 0.681 | 0.631 | 0.585 | 0.566 | 0.797 | 0.691 | 0.62 | 0.557 | 0.555 |
| NCI-H358 | 0.133 | 0.122 | 0.147 | 0.129 | 0.117 | 0.137 | 0.117 | 0.103 | 0.11 | 0.143 | 0.2 | 0.191 | 0.142 | 0.209 | 0.155 | 0.367 | 0.27 | 0.266 | 0.205 | 0.154 |
| NCI-H441 | 0.154 | 0.172 | 0.132 | 0.147 | 0.132 | 0.37 | 0.49 | 0.249 | 0.287 | 0.206 | 0.272 | 0.248 | 0.259 | 0.25 | 0.168 | 0.819 | 0.797 | 0.722 | 0.749 | 0.608 |
| NCI-H460 | 0.152 | 0.0859 | 0.0921 | 0.018 | 0.0172 | 0.369 | 0.176 | 0.138 | 0.085 | 0.0431 | 0.481 | 0.389 | 0.361 | 0.305 | 0.112 | 0.621 | 0.482 | 0.376 | 0.12 | 0.0929 |
| NCI-H520 | 0.217 | 0.238 | 0.199 | 0.158 | 0.232 | 0.281 | 0.225 | 0.288 | 0.282 | 0.176 | 0.445 | 0.504 | 0.535 | 0.502 | 0.473 | 0.868 | 0.733 | 0.68 | 0.691 | 0.532 |
| NCI-H522 | 1.01 | 0.936 | 0.693 | 0.859 | 0.668 | 0.892 | 0.913 | 0.665 | 0.724 | 0.671 | 0.783 | 0.602 | 0.678 | 0.64 | 0.672 | 0.823 | 0.798 | 0.836 | 0.763 | 0.671 |
| NCI-H647 | 0.374 | 0.344 | 0.334 | 0.16 | 0.108 | 0.169 | 0.22 | 0.184 | 0.107 | 0.0699 | 0.39 | 0.349 | 0.377 | 0.344 | 0.19 | 0.634 | 0.562 | 0.642 | 0.465 | 0.196 |
| NCI-H650 | 0.421 | 0.469 | 0.487 | 0.535 | 0.374 | 0.573 | 0.615 | 0.541 | 0.445 | 0.356 | 0.346 | 0.294 | 0.345 | 0.301 | 0.261 | 0.528 | 0.585 | 0.392 | 0.569 | 0.667 |
| NCI-H661 | 0.429 | 0.404 | 0.377 | 0.311 | 0.348 | 0.816 | 0.796 | 0.565 | 0.481 | 0.513 | 0.522 | 0.537 | 0.484 | 0.412 | 0.431 | 0.742 | 0.753 | 0.782 | 0.782 | 0.724 |
| NCI-H727 | 0.577 | 0.513 | 0.41 | 0.382 | 0.384 | 0.31 | 0.212 | 0.347 | 0.196 | 0.244 | 0.818 | 0.619 | 0.541 | 0.431 | 0.453 | 0.961 | 0.851 | 0.424 | 0.387 | 0.382 |
| NCI-H838 | 0.207 | 0.183 | 0.162 | 0.159 | 0.202 | 0.251 | 0.322 | 0.214 | 0.27 | 0.249 | 0.466 | 0.416 | 0.457 | 0.448 | 0.403 | 0.682 | 0.591 | 0.598 | 0.631 | 0.568 |
| NCI-H1355 | 0.353 | 0.321 | 0.217 | 0.225 | 0.224 | 0.607 | 0.528 | 0.337 | 0.373 | 0.326 | 0.346 | 0.353 | 0.309 | 0.347 | 0.34 | 0.605 | 0.524 | 0.341 | 0.377 | 0.291 |
